Source: patent US20210262032A1, “DETERMINING RESPONDERS TO INFLAMMATION TREATMENT” (RAMBAM MED-TECH LTD., priority 2018, published 2021)

What was measured:
TNFα expression = assay: Whole blood treated with Vedolizumab, LPA or combination; TNFα expression by qPCR; format: cell-based, human; settings: whole blood from healthy donors, 3 hours at 37 degrees, Vedolizumab 600 μg/ml, LPA 1 μM, fold-induction over untreated control
Method: FIGS. 11A-B: […] synergistic effect between Vedolizumab and LPA in-Vitro. (11A-B) Bar charts showing inflammatory cytokine expression including (11A) TNFα and (11B) IL-1β post incubation with Vedolizumab (600 μg/ml), LPA (1 μM) and co-incubation of the two substances, using qPCR for quantification. Un-treated whole blood basal expression served as control and values were expressed as fold-induction over control. Data were pooled from three independent experiments. Significance was calculated using Wilcoxon-test (two-sided; μ=1)
The combined effect of Vedolizumab and LPA was next tested on blood cells. Whole blood from healthy donors was treated with Vedolizumab, LPA or a combination for 3 hours at 37 degrees and pro-inflammatory cytokine expression was measured. Untreated whole blood was used as a control. […] This may be due to the fact that there are 6 LPA receptors and it appears that antagonism of only one of them is not sufficient to completely counter act the effect of the LPA.

IBD (UC and CD) patients = assay: Primary clinical response to Vedolizumab in IBD patients, cohort 1; format: in vivo, human; settings: number of patients with 0—None / 1—partial / 2—full response; for clinical 2 w (0/1/2): 2 weeks; for clinical 14 w (0/1/2): 14 weeks; for clinical 26 w (0/1/2): 26 weeks; for clinical 52 w (0/1/2): 52 weeks
From the text: The exploratory study cohort consisted of 73 whole blood samples from 22 IBD (UC and CD) patients, who received Vedolizumab treatment at the Rambam Health Care Campus (RHCC) and met the study inclusion criteria. Patients that had past exposure to Vedolizumab, or patients who had active infection including febrile diseases or intra-abdominal or perianal abscess were excluded.
Samples were collected at the following time-points: pretreatment, 2 weeks and 14 weeks post first treatment and following one year of treatment for those patients who received long-term care. Patients were classified for response by clinical score after one-year follow-up and were clinically characterized as detailed in table 2.

[1] = test system: Tregs in intestinal tissue; assay: Estimated Treg proportion scores in intestinal tissue by xCell deconvolution of public dataset GEO73661; format: in vivo, human; settings: post-treatment vs baseline, xCell estimate from GEO73661
Method: Deconvolved estimated Tregs proportion scores in intestinal tissue and peripheral blood at baseline and in different time points post-treatment in responding and non-responding patients were evaluated usind xCell.
xCell, which is a computational deconvolution method based on ssGSEA enrichment of cell specific signatures for estimation of abundance scores of immune cell types from the gene expression data, was used. Only cells that had non-zero values in at least 75% of the samples were included.
Estimated cell proportions in intestinal tissue were tested using a publicly available dataset (GEO73661). […] Although Treg accumulation is observed in blood of non-responders, tissue Tregs are not reduced.

Substance	TNFα expression (TNFα expression)	clinical 2 w (0/1/2) (IBD (UC and CD) patients; Non-responders (n = 10))	clinical 14 w (0/1/2) (IBD (UC and CD) patients; Non-responders (n = 10))	clinical 26 w (0/1/2) (IBD (UC and CD) patients; Non-responders (n = 10))	clinical 52 w (0/1/2) (IBD (UC and CD) patients; Non-responders (n = 10))	clinical 2 w (0/1/2) (IBD (UC and CD) patients; Responders (n = 12))	clinical 14 w (0/1/2) (IBD (UC and CD) patients; Responders (n = 12))	clinical 26 w (0/1/2) (IBD (UC and CD) patients; Responders (n = 12))	clinical 52 w (0/1/2) (IBD (UC and CD) patients; Responders (n = 12))	Tregs frequency in intestinal tissue ([1]; non-responders)	Tregs frequency in intestinal tissue ([1]; responding patients)
Vedolizumab	neither Vedolizumab nor LPA alone had an effect	5/5/0	7/2/1	8/2/0	10/0/0	1/7/0	1/5/2	0/4/5	0/0/12	unaffected	reduces Tregs frequency
lysophosphatidic acid [LPA]	neither Vedolizumab nor LPA alone had an effect	–	–	–	–	–	–	–	–	–	–
